What all share (assay): Post-emergence test, % damage
What all share (type): in vivo
Conditions in all cases: after 48 days

In one assay the test system is Chenopodium album. An excerpt:
(§1) After 48 days, the degree of damage to the plants is rated in % damage in comparison to the development of the untreated control.

The next assay deals with Festuca ovina.
Description: as §1

Another assay has as its system Plantago major.
Description: as §1

For a further assay, the system named is Poa annua.
Description: as §1

For the next assay, the system named is Taraxacum officinale.
Description: as §1

The subject of a further assay is Trifolium repens.
Description: as §1

The mark [1] stands for this setting: Iodosulfuron-methyl 1 g of active compound/ha.
The mark [2] stands for this setting: Iodosulfuron-methyl 1.25 g of active compound/ha.
The mark [3] stands for this setting: Iodosulfuron-methyl 2.5 g of active compound/ha.
The mark [4] stands for this setting: Iodosulfuron-methyl 10 g of active compound/ha.
[5] abbreviates: Pelargonic acid 10000 g of active compound/ha.
Where [6] appears, read: Pelargonic acid 20000 g of active compound/ha.
The mark [7] stands for this setting: Pelargonic acid 30000 g of active compound/ha.

Regarding “4-iodo-2-[(4-methoxy-6-methyl-1,3,5-triazin-2-yl)carbamoylsulfamoyl]benzoate, sodium salt [Iodosulfuron-methyl]”, the “herbicidal effect [%]” value was determined as 0% in the assay with Chenopodium album (setting [1]); 0% with Chenopodium album (setting [2]); 10% in the assay with Chenopodium album (setting [3]); 40% with Chenopodium album (setting [4]); 0% in the assay on Festuca ovina (setting [1]); 0% in the assay on Festuca ovina (setting [2]). For the same compound, the “herbicidal effect [%]” value in the assay with Festuca ovina (setting [3]) amounted to 0%; in the assay with Festuca ovina (setting [4]), 6.7%; with Plantago major (setting [1]), 0%; in the assay with Plantago major (setting [2]), 3%; with Plantago major (setting [3]) it was 30%; with Plantago major (setting [4]), 53.3%. The “herbicidal effect [%]” value with Poa annua (setting [1]) is reported as 0%; in the assay with Poa annua (setting [2]), 0%; with Poa annua (setting [3]), 0%; in the assay with Poa annua (setting [4]), 0%; in the assay with Taraxacum officinale (setting [1]), 18.3%; in the assay on Taraxacum officinale (setting [2]), 18%. The “herbicidal effect [%]” value in the assay on Taraxacum officinale (setting [3]) is listed as 42%; in the assay with Taraxacum officinale (setting [4]), 85%; with Trifolium repens (setting [1]) it was 18.3%; with Trifolium repens (setting [2]) it was 32%; with Trifolium repens (setting [3]) it was 45%; with Trifolium repens (setting [4]), 80%.
Consider `CCCCCCCCC(=O)O` [Pelargonic acid, nonanoic acid], for which the “herbicidal effect [%]” value in the assay on Chenopodium album (setting [5]) is reported as 0%; with Chenopodium album (setting [6]) it was 10%; in the assay with Chenopodium album (setting [7]), 20%; with Festuca ovina (setting [5]), 0%; with Festuca ovina (setting [6]) it was 0%; with Festuca ovina (setting [7]) it was 6.7%. Besides, the “herbicidal effect [%]” value in the assay with Plantago major (setting [5]) came out at 0%; in the assay with Plantago major (setting [6]), 0%; with Plantago major (setting [7]) it was 13.3%; in the assay on Poa annua (setting [5]), 0%; with Poa annua (setting [6]), 0%; in the assay with Poa annua (setting [7]), 0%. Besides, the “herbicidal effect [%]” value in the assay with Taraxacum officinale (setting [5]) is reported as 6.7%; in the assay on Taraxacum officinale (setting [6]), 7%; in the assay with Taraxacum officinale (setting [7]), 20%; in the assay with Trifolium repens (setting [5]), 0%; in the assay with Trifolium repens (setting [6]) it was 0%; with Trifolium repens (setting [7]) it was 3.3%.

For the origin of these results see patent US9999221B2, “Herbicide combination containing pelargonic acid and defined ALS inhibitors” (BAYER CROPSCIENCE AKTIENGESELLSCHAFT, priority 2013, dated 2018).
